Data taken from paper PMC11440508, “Dually Labeled Neurotensin NTS1R Ligands for Probing Radiochemical and Fluorescence-Based Binding Assays” (Journal of Medicinal Chemistry, 2024).

Experiment: Radiochemical purity after storage (RP-HPLC)
Assay type: physicochemical
Conditions: stock solution, degradation by radiolysis
Description: Figure 2 (A) Radiochemical purities (>99%) of [^3H]13 and [^3H]18 directly after synthesis determined by RP-HPLC analysis. (B) Radiochemical purities of [^3H]13 and [^3H]18 determined 11 months after synthesis. The purities amounted to 92% ([^3H]13) and 80% ([^3H]18).
Over a period of 11 months, degradation of both dually labeled ligands by radiolysis was low (Figure 2B).
A solution of succinimidyl [^3H]propionate (molar activity: 3.89 TBq/mmol, purchased from Novandi, Södertälje, Sweden) (55.5 MBq, 0.75 mL, 14.3 nmol) in n-heptane/EtOAc 3:2 v/v was transferred from the delivered ampule into a 1.5 mL polypropylene reaction vessel with screw cap, and the solvent was removed in a vacuum concentrator (30 °C, ca. 30 min). […] To quantify the activity of the two radioligands and to determine the molar concentration, 2 × 2 μL of the preliminary stock solution were added to 998 μL of DMSO/H2O 3:7 v/v, and 4 × 10 μL of these dilutions were counted in 3 mL of liquid scintillator (Rotiscint Eco Plus, Carl Roth, Karlsruhe, Germany) with a Tri-Carb 3100TR liquid scintillation counter (PerkinElmer). […] The molar activity of the labeling reagent succinimidyl [^3H]propionate was determined by liquid chromatography–mass spectrometry (LC-MS) analysis. Coinjection of “cold” succinimidyl propionate allowed the quantification of the incorporated tritium (Novandi, Södertälje, Sweden). […]

## CCC(=O)NCCCCNC(=O)NC(=N)NCCC[C@H](NC(=O)[C@@H]1CCCN1C(=O)[C@@H](NC(=O)CCc1cn(CCCNC(=O)c2ccc(-c3c4ccc(=[N+](C)C)cc-4oc4cc(N(C)C)ccc34)c(C(=O)[O-])c2)nn1)C1CCNCC1)C(=O)N[C@@H](CCCNC(=N)N)C(=O)N1CCC[C@H]1C(=O)N[C@@H](Cc1ccc(O)cc1)C(=O)N[C@H](C(=O)N[C@@H](CC(C)C)C(=O)O)[C@@H](C)CC [[^3H]13]
  Radiochemical purity 11 months after synthesis: 92%
